Measurements taken from the NIST ThermoML archive (doi:10.1021/je060107n).

Experiment: mn = molality of the nth substance listed, in mol/kg
Details: 101 kPa, Liquid; for speed of sound: Linear variable-path acoustic interferometer; for viscosity: Capillary tube (Ostwald / Ubbelohde) method

O=[N+]([O-])[O-].O=[N+]([O-])[O-].[Mg+2] [magnesium nitrate] + O
Details	speed of sound, 283.15 K [m/s]	speed of sound, 288.15 K [m/s]	speed of sound, 293.15 K [m/s]	viscosity, 288.15 K [mPa·s]	viscosity, 293.15 K [mPa·s]
m1 = 0.0145	1449.2	1471.7	1484.3	1.164	1.021
m1 = 0.0528	1458.5	1477.1	1486.7	1.18	1.038
m1 = 0.2491	1470.7	1487.6	1501.9	1.244	1.092
m1 = 0.3405	1475.6	1491.5	1507	–	–
m1 = 0.5931	–	–	–	1.367	1.209
m1 = 0.6173	1503.7	1517.8	1530.1	–	–
m1 = 0.896	1529	1541.2	1553.1	–	–
m1 = 0.9898	1538.8	1550.4	1561.5	1.554	1.378
m1 = 1.262	1563.1	1573.8	1582.5	1.727	1.53
m1 = 1.525	1587.6	1596.3	1604.4	–	–
m1 = 1.827	1617.9	1625.4	1631.9	2.098	1.859
m1 = 2.131	1645.2	1650.6	–	2.33	2.064
m1 = 2.493	1675.2	1677.8	–	–	–
m1 = 2.584	–	–	–	2.821	2.471
m1 = 2.793	1700.3	1703.5	–	–	–
m1 = 3.096	–	–	–	3.408	3.002
m1 = 3.118	1725.7	1727.3	–	–	–
m1 = 3.17	1734.2	1735.3	–	–	–
m1 = 3.329	–	–	–	3.754	3.308
m1 = 3.501	1754.9	1755.4	–	–	–
m1 = 3.704	–	–	–	4.345	3.807
m1 = 3.757	1771.9	1771.3	–	–	–
m1 = 4.039	–	–	–	5.051	4.432
m1 = 4.051	1790.4	1789.6	–	–	–
m1 = 4.285	1806.3	1804.5	–	–	–
m1 = 4.403	1813.5	1810.8	–	–	–
m1 = 4.728	–	–	–	7.067	6.098
m1 = 4.883	1847.2	1842.3	–	–	–
m1 = 4.907	–	–	–	7.798	6.799
